Data reported in PMC11440591 (Journal of Medicinal Chemistry, 2024).

What was measured:
[1] = test system: EBOV-GP-pseudotyped virus (pEBOV); test: microbe, parasite or virus in culture; conditions: for inhibition at 10 µM: Zaire ebolavirus, Vero C1008, read-out: %inh@10 μM (pEBOV); for EC50: Vesicular stomatitis virus, Vero C1008, 24 h, read-out: EC50 (pEBOV)
[2] = test system: wild-type Zaire EBOV Mayinga 1976 strain (EBOV May); test: microbe, parasite or virus in culture; conditions: Zaire ebolavirus, Vero C1008, 72 h, read-out: EC50 (EBOV May)
[3] = test system: EBOV-GP-pseudotyped virus (pEBOV)
[4] = test system: VSV-G-pseudotype virus (pVSV-G); test: microbe, parasite or virus in culture; format: cell-based; conditions: Vesicular stomatitis virus, read-out: %inh@10µM (pVSV-G)
[5] = test system: wild-type Zaire EBOV Mayinga 1976 strain (EBOV May)

Compound | CC50 (in vitro; chlorocebus sabaeus) [µM] | inhibition at 10 µM [1] [%] | EC50 [2] [µM] | CC50 at 24 h (in vitro; chlorocebus sabaeus) [µM] | inhibition at 10 µM [4] [%] | also measured
O=C(Nc1ccccc1)c1ccc(-c2ccccc2)s1 [compound 2] | > 100 | < 75 | – | – | – | –
O=C(Nc1ccc(Cl)cc1)c1ccc(-c2ccccc2)s1 [compound 3] | > 100 | < 75 | – | – | – | –
O=C(Nc1cccc(Cl)c1)c1ccc(-c2ccccc2)s1 [compound 4] | > 100 | < 75 | > 100 | – | – | –
O=C(NCCc1ccccc1)c1ccc(-c2ccccc2)s1 [compound 5] | > 100 | < 75 | > 100 | – | – | CC50 (in vitro; African green monkey): 100 µM
O=C(Nc1ccc(N2CCOCC2)cc1)c1ccc(-c2ccccc2)s1 [compound 6] | > 100 | < 75 | – | – | – | –
O=C(NCCC1CCN(Cc2ccccc2)CC1)c1ccc(-c2ccccc2)s1 [compound 7] | > 100 | < 75 | – | – | – | –
O=C(c1ccc(-c2ccccc2)s1)N1CCCC1 [compound 8] | > 100 | < 75 | – | – | – | –
O=C(Nc1ccccc1)c1ccc(-c2ccccc2O)s1 [compound 16] | > 100 | -36 | – | – | – | –
O=C(Nc1ccc(Cl)cc1)c1ccc(-c2ccccc2O)s1 [compound 17] | > 100 | -19 | – | – | – | –
O=C(Nc1cccc(Cl)c1)c1ccc(-c2ccccc2O)s1 [compound 18] | > 100 | -35 | – | – | – | –
O=C(NCCc1ccccc1)c1ccc(-c2ccccc2O)s1 [compound 19] | > 100 | -22 | – | – | – | –
O=C(Nc1ccc(N2CCOCC2)cc1)c1ccc(-c2ccccc2O)s1 [compound 20] | > 100 | -23 | – | – | – | –
O=C(NCCC1CCN(Cc2ccccc2)CC1)c1ccc(-c2ccccc2O)s1 [compound 21] | – | -22 | – | 70 | – | –
O=C(c1ccc(-c2ccccc2O)s1)N1CCCC1 [compound 22] | > 200 | 0 | – | – | – | –
O=C(Nc1ccc(Cl)cc1)c1ccc(-c2cccc(O)c2)s1 [compound 24] | > 200 | 16 | – | – | – | –
O=C(Nc1cccc(Cl)c1)c1ccc(-c2cccc(O)c2)s1 [compound 25] | > 200 | -20 | – | – | – | –
O=C(NCCc1ccccc1)c1ccc(-c2cccc(O)c2)s1 [compound 26] | > 200 | 10 | – | – | – | –
O=C(Nc1ccc(Cl)cc1)c1ccc(-c2ccc(O)cc2)s1 [compound 28] | > 200 | 46 | – | – | – | –
O=C(Nc1cccc(Cl)c1)c1ccc(-c2ccc(O)cc2)s1 [compound 29] | > 200 | 27 | – | – | – | –
O=C(NCCc1ccccc1)c1ccc(-c2ccc(O)cc2)s1 [compound 30] | > 200 | -63 | – | – | – | –

Compound | CC50 (in vitro; chlorocebus sabaeus) [µM] | inhibition at 10 µM [1] [%] | EC50 [2] [µM] | CC50 at 24 h (in vitro; chlorocebus sabaeus) [µM] | inhibition at 10 µM [4] [%] | also measured
O=C(NCCC1CCN(Cc2ccccc2)CC1)c1ccc(-c2ccc(O)cc2)s1 [compound 31] | > 100 | 41 | – | – | – | –
CC(C)(C)OC(=O)N1CCC(Oc2ccccc2-c2ccc(C(=O)Nc3cccc(Cl)c3)s2)CC1 [compound 34, tert-butyl 4-(2-(5-((3-chlorophenyl)carbamoyl)thiophen-2-yl)phenoxy)piperidine-1-carboxylate] | > 100 | -36 | – | – | – | antiviral activity against pEBOV (in words) [3]: complete loss of activity
CC(C)(C)OC(=O)N1CCC(Oc2cccc(-c3ccc(C(=O)Nc4ccccc4)s3)c2)CC1 [compound 39, tert-butyl 4-(3-(5-(phenylcarbamoyl)thiophen-2-yl)phenoxy)piperidine-1-carboxylate] | – | 38 | – | – | – | antiviral activity against pEBOV (in words) [3]: complete loss of activity
O=C(Nc1ccc(Cl)cc1)c1ccc(-c2ccccc2OC2CCNCC2)s1 [compound 47, N-(4-Chlorophenyl)-5-(2-(piperidin-4-yloxy)phenyl)thiophene-2-carboxamide] | – | – | 1.55 | 27.9 | -117 | SI (CC50/EC50) [3]: 3.32; SI (CC50/EC50) [5]: 18; EC50 [1]: 8.4 µM
O=C(Nc1cccc(Cl)c1)c1ccc(-c2ccccc2OC2CCNCC2)s1 [compound 48, N-(3-Chlorophenyl)-5-(2-(piperidin-4-yloxy)phenyl)thiophene-2-carboxamide] | – | – | 1.3 | 22.3 | – | SI (CC50/EC50) [3]: 4.8; SI (CC50/EC50) [5]: 17.1; EC50 [1]: 4.65 µM
O=C(NCCc1ccccc1)c1ccc(-c2ccccc2OC2CCNCC2)s1 [compound 49, N-Phenethyl-5-(2-(piperidin-4-yloxy)phenyl)thiophene-2-carboxamide] | – | – | 0.79 | 29.2 | -160 | SI (CC50/EC50) [3]: 5.6; SI (CC50/EC50) [5]: 36.9; EC50 [1]: 5.2 µM
O=C(Nc1ccc(N2CCOCC2)cc1)c1ccc(-c2ccccc2OC2CCNCC2)s1 [compound 50, N-(4-Morpholinophenyl)-5-(2-(piperidin-4-yloxy)phenyl)thiophene-2-carboxamide] | – | – | 7.74 | 22 | -31 | SI (CC50/EC50) [3]: 2.26; SI (CC50/EC50) [5]: 2.8; EC50 [1]: 9.7 µM
O=C(NCCC1CCN(Cc2ccccc2)CC1)c1ccc(-c2ccccc2OC2CCNCC2)s1 [compound 51, N-(2-(1-Benzylpiperidin-4-yl)ethyl)-5-(2-(piperidin-4-yloxy)phenyl)thiophene-2-carboxamide] | – | – | 2.96 | 19.5 | -148 | SI (CC50/EC50) [3]: 2; SI (CC50/EC50) [5]: 6.6; EC50 [1]: 9.3 µM
O=C(c1ccc(-c2ccccc2OC2CCNCC2)s1)N1CCCC1 [compound 52, (5-(2-(Piperidin-4-yloxy)phenyl)thiophen-2-yl)(pyrrolidin-1-yl)methanone] | > 100 | -116 | – | – | -108 | antiviral activity against pEBOV (in words) [3]: completely inactive
O=C(Nc1ccc(Cl)cc1)c1ccc(-c2cccc(OC3CCNCC3)c2)s1 [compound 54, N-(4-Chlorophenyl)-5-(3-(piperidin-4-yloxy)phenyl)thiophene-2-carboxamide] | – | – | 1.12 | 10 | 30 | SI (CC50/EC50) [3]: 2.8; SI (CC50/EC50) [5]: 8.9; EC50 [1]: 3.53 µM
O=C(Nc1cccc(Cl)c1)c1ccc(-c2cccc(OC3CCNCC3)c2)s1 [compound 55, N-(3-Chlorophenyl)-5-(3-(piperidin-4-yloxy)phenyl)thiophene-2-carboxamide] | – | – | 1.86 | 15 | -4 | SI (CC50/EC50) [5]: 8.0; EC50 [1]: 7.5 µM
O=C(NCCc1ccccc1)c1ccc(-c2cccc(OC3CCNCC3)c2)s1 [compound 56, N-Phenethyl-5-(3-(piperidin-4-yloxy)phenyl)thiophene-2-carboxamide] | – | – | 4.93 | 10 | -182 | SI (CC50/EC50) [3]: 1.98; SI (CC50/EC50) [5]: 2.0; EC50 [1]: 5.03 µM
O=C(Nc1ccc(Cl)cc1)c1ccc(-c2ccc(OC3CCNCC3)cc2)s1 [compound 58, N-(4-Chlorophenyl)-5-(4-(piperidin-4-yloxy)phenyl)thiophene-2-carboxamide] | – | – | 2.42 | 10 | -12 | SI (CC50/EC50) [3]: 1.39; SI (CC50/EC50) [5]: 4.13; EC50 [1]: 7.18 µM
O=C(Nc1cccc(Cl)c1)c1ccc(-c2ccc(OC3CCNCC3)cc2)s1 [compound 59, N-(3-Chlorophenyl)-5-(4-(piperidin-4-yloxy)phenyl)thiophene-2-carboxamide] | – | – | 1.19 | 26 | 5 | SI (CC50/EC50) [3]: 3.8; SI (CC50/EC50) [5]: 21.8; EC50 [1]: 7.91 µM
O=C(NCCc1ccccc1)c1ccc(-c2ccc(OC3CCNCC3)cc2)s1 [compound 60, N-Phenethyl-5-(4-(piperidin-4-yloxy)phenyl)thiophene-2-carboxamide] | – | -8 | – | 10 | -12 | antiviral activity against pEBOV (in words) [3]: completely inactive
O=C(NCCC1CCN(Cc2ccccc2)CC1)c1ccc(-c2ccc(OC3CCNCC3)cc2)s1 [compound 63, N-(2-(1-Benzylpiperidin-4-yl)ethyl)-5-(4-(piperidin-4-yloxy)phenyl)thiophene-2-carboxamide] | > 100 | 58 | – | – | 12 | antiviral activity against pEBOV (in words) [3]: completely inactive
O=C(Nc1ccccc1)c1ccc(-c2ccccc2OC2CCN(Cc3ccccc3)CC2)s1 [compound 64] | > 200 | 27 | – | – | – | antiviral activity against pEBOV (in words) [3]: lacked activity
O=C(Nc1ccccc1)c1cnc(-c2ccc(OC3CCNCC3)cc2)s1 [compound 78, N-Phenyl-2-(4-(piperidin-4-yloxy)phenyl)thiazole-5-carboxamide] | – | -96 | – | 50 | -32 | –
O=C(Nc1ccccc1)c1cnc(-c2cccc(OC3CCNCC3)c2)s1 [compound 98, N-Phenyl-2-(3-(piperidin-4-yloxy)phenyl)thiazole-5-carboxamide] | – | -8 | – | – | -18 | –
O=C(Nc1ccccc1)c1ccc(-c2ccccc2OC2CCNCC2)o1 [compound 100, N-Phenyl-5-(2-(piperidin-4-yloxy)phenyl)furan-2-carboxamide] | – | – | – | 79 | 32 | SI (CC50/EC50) [3]: 3.8; EC50 [1]: 20.7 µM
